In the experiment the target is T1, mTRPA1 (Mus musculus, UniProt Q8BLA8).
T1 construct: expressed in transfected cells
Put plainly: IonWorks Barracuda (IWB) automated patch clamp, TRPA1 inhibitory activity. The experiment is classed as cell-based. The following applies: HEK293 cells stably expressing mTRPA1, current induced by AITC, amplitude at +100 mV; read-out: IC50 (inhibition activity on TRPA1). As for the experimental part: In this example, the inhibitory activity of the compounds prepared in some examples of the present invention on transient receptor potential channel protein ankyrin 1 (TRPA1) was tested. Among them, compound of formula A (WO2010075353) was used as the positive control compound: […]
Test method using IonWorks Barracuda (IWB) automated patch clamp detection: HEK293 cells stably expressing mTRPA1 were placed in the T175 culture flask with DMEM medium containing 15 µg/mL Blasticidin S HCl, 200 µg/mL Hygromycin B and 10% FBS, and cultured in 37° C., 5% CO2 incubator. When the cell density reached about 80%, the culture medium was removed, washed once with phosphate buffered saline (PBS) without calcium and magnesium. 3 mL of Trypsin was added to digest for 2 min, 7 mL of culture solution was added to terminate the digestion. The cells were collected to 15 mL centrifuge tube and centrifuged at 800 rpm for 3 min. After the supernatant was removed, the cells were added to appropriate volume of extracellular fluid for re-suspending, and the cell density was controlled at 2-3×10^6/mL for use in IWB experiment. Extracellular fluid formulation (in mM): 140 NaCl, 5 KCl, 1 MgCl2, 10 HEPES, 0.5 EGTA, 10 Glucose (pH 7.4); intracellular fluid formulation (in mM): 140 CsCl, 10 HEPES, 5 EGTA, 0.1 CaCl2, 1 MgCl2 (pH 7.2). 28 mg/mL of amphotericin B was freshly prepared with DMSO on the day of experiment, and then final concentration of 0.1 mg/mL was prepared with intracellular fluid.
Population patch clamp (PPC) plate was used in IWB experiment. The entire detection process was automatically carried out by the instrument, that is, extracellular fluid was added into 384 wells of PPC plate, and after intracellular fluid was added under PPC plate (in plenum), 6 µL of cell fluid was added for sealing test, and finally the intracellular fluid in plenum was replaced with intracellular fluid containing amphotericin B to establish a whole-cell recording mode after perforating sealed cells. The sampling frequency for recording TPRA1 current was 10 kHz, the cells were clamped at 0 mV, the voltage stimulation command (channel protocol) was a ramp voltage from −100 mV to +100 mV for 300 ms. This voltage stimulation was applied every 10 s, mTRPA1 current was induced by 300 µM AITC.
Data recording and current amplitude measurement export were carried out by IWB software (version 2.5.3, Molecular Devices Corporation, Union City, CA). No statistics was recorded for holes with sealing impedance lower than 20 MΩ. The original current data was corrected by software for leak subtraction. TRPA1 current amplitude was measured at +100 mV. […] If IC50 value of HC030031 exceeded 3 times of the average IC50 value previously obtained on each plate, it would be re-tested. The dose-effect curve of compounds and IC50 were fitted and calculated by GraphPad Prism 5.02 (GraphPad Software, San Diego, CA).
Some compounds of the present invention were subjected to IC50 inhibition activity test using the IonWorks Barracuda (IWB) automated patch clamp detection method.
Background: In patch-clamp work, channel activity is measured electrically.

T1 sequence (Q8BLA8 whole entry): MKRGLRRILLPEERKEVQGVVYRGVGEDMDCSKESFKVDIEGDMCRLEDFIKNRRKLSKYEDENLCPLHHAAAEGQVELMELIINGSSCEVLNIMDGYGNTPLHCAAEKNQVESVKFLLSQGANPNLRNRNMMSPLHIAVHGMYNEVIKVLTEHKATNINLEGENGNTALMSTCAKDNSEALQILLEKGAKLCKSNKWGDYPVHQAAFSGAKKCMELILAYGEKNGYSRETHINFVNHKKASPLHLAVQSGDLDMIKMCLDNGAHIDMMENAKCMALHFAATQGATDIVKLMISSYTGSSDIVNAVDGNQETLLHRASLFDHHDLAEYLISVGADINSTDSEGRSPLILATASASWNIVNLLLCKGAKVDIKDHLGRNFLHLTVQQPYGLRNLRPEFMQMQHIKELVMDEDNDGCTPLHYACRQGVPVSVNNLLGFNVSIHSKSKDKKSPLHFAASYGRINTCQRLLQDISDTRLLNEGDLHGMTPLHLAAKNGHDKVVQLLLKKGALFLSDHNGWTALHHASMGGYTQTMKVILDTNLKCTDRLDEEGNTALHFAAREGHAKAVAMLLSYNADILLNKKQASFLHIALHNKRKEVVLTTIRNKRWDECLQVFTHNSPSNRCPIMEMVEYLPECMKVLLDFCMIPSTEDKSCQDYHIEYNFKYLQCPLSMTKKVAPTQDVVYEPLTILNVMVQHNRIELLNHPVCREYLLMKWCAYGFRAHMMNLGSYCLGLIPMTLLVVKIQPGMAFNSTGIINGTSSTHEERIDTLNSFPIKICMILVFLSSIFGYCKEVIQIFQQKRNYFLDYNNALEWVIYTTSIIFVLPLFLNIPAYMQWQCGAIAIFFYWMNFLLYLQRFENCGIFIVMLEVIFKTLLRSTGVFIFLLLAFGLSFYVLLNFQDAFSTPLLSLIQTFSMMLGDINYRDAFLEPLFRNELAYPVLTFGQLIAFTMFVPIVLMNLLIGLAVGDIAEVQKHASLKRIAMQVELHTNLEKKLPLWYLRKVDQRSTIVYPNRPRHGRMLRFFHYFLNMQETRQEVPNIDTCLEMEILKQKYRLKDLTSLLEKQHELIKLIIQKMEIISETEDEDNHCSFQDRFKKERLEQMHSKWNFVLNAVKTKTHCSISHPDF

What is called IC50 is the point on the concentration scale where inhibition reaches its midpoint. `C[C@H]1CCCN1c1ccc(-c2csc(NC(=O)Cn3cnc4c3c(=O)n(C)c(=O)n4C)n2)cc1F` [Compound of formula A, reference compound]: the IC50 is 50 to 100 µM.

`CNCc1ccc(-c2ccco2)c(NS(=O)(=O)c2ccccc2F)c1` [IA-2, 2-Fluoro-N-(2-(furan-2-yl)-5-((methylamino)methyl)phenyl)benzenesulfonamide]: the IC50 was 1 to 5 µM. Consider `CNCc1ccc(-c2ccco2)c(NS(=O)(=O)c2cccc(F)c2)c1` [IA-3, 3-Fluoro-N-(2-(furan-2-yl)-5-((methylamino)methyl)phenyl)benzenesulfonamide], for which the IC50 fell in the range of 1 to 5 µM. On to `CNCc1ccc(-c2ccco2)c(NS(=O)(=O)c2ccccc2)c1` [IA-4, N-(2-(furan-2-yl)-5-((methylamino)methyl)phenyl)benzenesulfonamide], for which the half-inhibitory concentration (IC50) fell in the range of 1 to 5 µM.

As to `CNCc1ccc(-c2ccco2)c(NS(=O)(=O)c2ccc(OC)cc2)c1` [IA-6, 4-Methoxy-N-(2-(furan-2-yl)-5-((methylamino)methyl)phenyl)benzenesulfonamide], the IC50 lay within 5 to 10 µM. On to `CNCc1ccc(-c2ccco2)c(NS(=O)(=O)c2ccc(Cl)cc2)c1` [IA-7], for which the IC50 was 5 to 10 µM. In the case of `CNCc1ccc(-c2ccco2)c(NS(=O)(=O)c2ccccc2OC(F)(F)F)c1` [IA-8, 2-Trifluoromethoxy-N-(2-(furan-2-yl)-5-((methylamino)methyl)phenyl)benzenesulfonamide], the IC50 fell in the range of 10 to 20 µM. As for `CNCc1ccc(-c2ccco2)c(NS(=O)(=O)c2ccc(OC(F)(F)F)cc2)c1` [IA-9, 4-Trifluoromethoxy-N-(2-(furan-2-yl)-5-((methylamino)methyl)phenyl)benzenesulfonamide], the figure is 20 to 50 µM; as for `CNCc1ccc(-c2ccco2)c(NS(=O)(=O)c2ccc(C)cc2)c1` [IA-10, 4-Methyl-N-(2-(furan-2-yl)-5-((methylamino)methyl)phenyl)benzenesulfonamide], 1 to 5 µM. As for `CNCc1ccc(-c2ccco2)c(NS(=O)(=O)c2c(F)cccc2F)c1` [IA-12, 2,6-Difluoro-N-(2-(furan-2-yl)-5-((methylamino)methyl)phenyl)benzenesulfonamide], the IC50 fell in the range of 5 to 10 µM. Turning to `CNCc1ccc(-c2ccco2)c(NS(=O)(=O)c2ccc(C(F)(F)F)cc2)c1` [IA-13, 4-Trifluoromethyl-N-(2-(furan-2-yl)-5-((methylamino)methyl)phenyl)benzenesulfonamide], the IC50 is 10 to 20 µM. As for `CNCc1ccc(-c2ccco2)c(NS(=O)(=O)c2ccc3ccccc3c2)c1` [IA-14, N-(2-(furan-2-yl)-5-((methylamino)methyl)phenyl)naphthalene-2-sulfonamide], the IC50 was 50 to 100 µM. `CNCc1ccc(-c2ccco2)c(NS(=O)(=O)c2ccc3ncsc3c2)c1` [IA-16, N-(2-(furan-2-yl)-5-((methylamino)methyl)phenyl)benzothiazole-6-sulfonamide]: the IC50 was 5 to 10 µM.

As to `CNCc1ccc(-c2ccco2)c(NS(=O)(=O)c2cccnc2)c1` [IA-17, N-(2-(furan-2-yl)-5-((methylamino)methyl)phenyl)pyridine-3-sulfonamide], the IC50 was in the range of 5 to 10 µM. For `CNCc1ccc(-c2ccco2)c(NS(=O)(=O)c2ccc(Cl)nc2)c1` [IA-18, 6-Chloro-N-(2-(furan-2-yl)-5-((methylamino)methyl)phenyl)pyridine-3-sulfonamide], the IC50 was in the range of 10 to 20 µM. As for `CNCc1ccc(-c2ccco2)c(NS(=O)(=O)c2cccs2)c1` [IA-20, N-(2-(furan-2-yl)-5-((methylamino)methyl)phenyl)thiophene-2-sulfonamide], the figure is 1 to 5 µM.

For the molecule `CNCc1ccc(-c2ccco2)c(NS(=O)(=O)c2ccc(Cl)s2)c1` [IA-22, 5-Chloro-N-(2-(furan-2-yl)-5-((methylamino)methyl)phenyl)thiophene-2-sulfonamide], the IC50 is 20 to 50 µM. For the molecule `CNCc1ccc(-c2ccco2)c(NS(=O)(=O)c2ccc(Br)s2)c1` [IA-23, 5-Bromo-N-(2-(furan-2-yl)-5-((methylamino)methyl)phenyl)thiophene-2-sulfonamide], the IC50 was 10 to 20 µM.

`CNCc1ccc(-c2ccco2)c(NS(=O)(=O)Cc2ccccc2)c1` [IA-24, N-(2-(furan-2-yl)-5-((methylamino)methyl)phenyl)-1-phenylmethanesulfonamide]: the IC50 is 20 to 50 µM. For `O=S(=O)(Nc1cc(CNCC(F)(F)F)ccc1-c1ccco1)c1ccccc1` [IA-25], the IC50 is 20 to 50 µM. As for `CNCc1ccc(NS(=O)(=O)c2ccccc2)c(-c2ccco2)c1` [IA-26, N-(2-(furan-2-yl)-4-((methylaamino)methyl)phenyl)benzenesulfonamide], the figure is 1 to 5 µM. The same measure for `CNCc1ccc(NS(=O)(=O)c2ccc(F)cc2)c(-c2ccco2)c1` [IA-27, 4-Fluoro-N-(2-(furan-2-yl)-4-((methylamino)methyl)phenyl)benzenesulfonamide]: 1 to 5 µM; for `CNCc1ccc(NS(=O)(=O)c2ccccc2F)c(-c2ccco2)c1` [IA-28, 2-Fluoro-N-(2-(furan-2-yl)-4-((methylamino)methyl)phenyl)benzenesulfonamide]: 1 to 5 µM. As for `CNCc1ccc(NS(=O)(=O)c2cccs2)c(-c2ccco2)c1` [IA-29, N-(2-(furan-2-yl)-4-((methylamino)methyl)phenyl)thiophene-2-sulfonamide], the IC50 is less than 1 µM. For the molecule `CNCc1ccc(NS(=O)(=O)c2cccnc2)c(-c2ccco2)c1` [IA-31, N-(2-(furan-2-yl)-4-((methylamino)methyl)phenyl)pyridine-3-sulfonamide], the IC50 was in the range of 5 to 10 µM. `CCNCc1ccc(NS(=O)(=O)c2ccsc2)c(-c2ccco2)c1` [IA-32, N-(4-((ethylamino)methyl)-2-(furan-2-yl)phenyl)thiophene-3-sulfonamide]: the IC50 is less than 1 µM. Consider `O=S(=O)(Nc1ccc(CNC2CCC2)cc1-c1ccco1)c1ccsc1` [IA-34, N-(4-((cyclobutylamino)methyl)-2-(furan-2-yl)phenyl)thiophene-3-sulfonamide], for which the IC50 fell in the range of 1 to 5 µM. Consider `CNCc1ccc(NS(=O)(=O)c2ccccc2)cc1-c1ccco1` [IA-36, N-(3-(furan-2-yl)-4-((methylamino)methyl)phenyl)benzenesulfonamide], for which the IC50 fell in the range of 20 to 50 µM. Regarding `CNCc1cc(NS(=O)(=O)c2ccccc2)cc(-c2ccco2)c1` [IA-39, N-(3-(furan-2-yl)-5-((methylamino)methyl)phenyl)benzenesulfonamide], the IC50 was 20 to 50 µM. With `CNCc1ccc(-c2ccco2)cc1NS(=O)(=O)c1ccccc1` [IA-40, N-(5-(furan-2-yl)-2-((methylamino)methyl)phenyl)benzenesulfonamide], the IC50 fell in the range of 50 to 100 µM. Regarding `CNCc1ccc(-c2ccoc2)c(NS(=O)(=O)c2ccc(F)cc2)c1` [IA-41, 4-Fluoro-N-(2-(furan-3-yl)-5-((methylamino)methyl)phenyl)benzenesulfonamide], the IC50 lay in the range of 5 to 10 µM. The same measure for `CNCc1ccc(-c2ccoc2)c(NS(=O)(=O)c2ccccc2)c1` [IA-42, N-(2-(furan-3-yl)-5-((methylamino)methyl)phenyl)benzenesulfonamide]: 1 to 5 µM; for `CNCc1ccc(-c2cccs2)c(NS(=O)(=O)c2ccccc2)c1` [IA-46, N-(2-(thiophene-2-yl)-5-((methylamino)methyl)phenyl)benzenesulfonamide]: 1 to 5 µM. Consider `CNCc1ccc(-c2cccs2)c(NS(=O)(=O)c2cccs2)c1` [IA-47, N-(2-(thiophene-2-yl)-5-((methylamino)methyl)phenyl)thiophene-2-sulfonamide], for which the IC50 lay within 1 to 5 µM.

Turning to `CNCc1ccc(-c2cccs2)c(NS(=O)(=O)c2ccsc2)c1` [IA-48, N-(2-(thiophene-2-yl)-5-((methylamino)methyl)phenyl)thiophene-3-sulfonamide], the IC50 lay in the range of 1 to 5 µM. For the molecule `CNCc1ccc(-c2ccc[nH]2)c(NS(=O)(=O)c2ccccc2)c1` [IA-50, N-(5-((methylamino)methyl)-2-(1H-pyrrole-2-yl)phenyl)benzenesulfonamide], the IC50 was 20 to 50 µM. On to `CNCc1ccc(-c2cn[nH]c2)c(NS(=O)(=O)c2ccccc2)c1` [IA-52], for which the IC50 fell in the range of 20 to 50 µM.

Source of the values: patent US20240262812A1, “N-SUBSTITUTED PHENYLSULFONAMIDE COMPOUND AND USE THEREOF” (Shanghai Leado Pharmatech Co., Ltd., priority 2021, published 2024).
